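Growth conditions: 96-well plates. Treatment: test compound, 48 hours, 5 concentrations. Analysis: linear interpolation between bracketing concentrations; unreached endpoints set to highest concentration. GI50 = concentration required for 50% inhibition of growth.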 Calls of active or inactive are those of the source. Cut-off read from the data, not from the text of the source: active = GI50 up to about 1.1 µM and inactive = higher.
Legend:
Assay in all cases: DTP human tumour cell line panel, 48 h
[1] = system: HCC 2998
[2] = system: NCI/ADR-RES
[3] = system: SK-MEL-28
[4] = system: KM12
[5] = system: OVCAR-8
[6] = system: 786-0
[7] = system: NCI-H460
[8] = system: SF-268
[9] = system: ACHN
[10] = system: SF-539
[11] = system: MCF7
[12] = system: SK-OV-3
[13] = system: SR
[14] = system: COLO 205
[15] = system: RPMI-8226
[16] = system: TK-10
[17] = system: SNB-19
[18] = system: SF-295
[19] = system: BT-549
[20] = system: UO-31

CCCCCCCCCCCCCCCCCC(=O)OCC(COC1OC(COP(=O)(O)O)C(O)C(O)C1O)OC(=O)CCCCCCCCCCCCCCCCC (stereo not given)
GI50 [1]: 7.29 µM (inactive)
GI50 [2]: 9.33 µM (inactive)
GI50 [3]: 9.98 µM (inactive)
GI50 [4]: 6.27 µM (inactive)
GI50 [5]: 7.35 µM (inactive)
GI50 [6]: 7.94 µM (inactive)
GI50 [7]: 11.7 µM (inactive)
GI50 [8]: 8.97 µM (inactive)
GI50 [9]: 6.41 µM (inactive)
GI50 [10]: 9.44 µM (inactive)
GI50 [11]: 8.38 µM (inactive)
GI50 [12]: 8 µM (inactive)
GI50 [13]: 0.0227 µM (active)
GI50 [14]: 9.59 µM (inactive)
GI50 [15]: 13.6 µM (inactive)
GI50 [16]: 10.4 µM (inactive)
GI50 [17]: 8 µM (inactive)
GI50 [18]: 4.02 µM (inactive)

Cc1cccc(C)c1NC(=O)/C(Cl)=C(/Cl)C(=O)O
GI50 [1]: 18 µM (inactive)
GI50 [19]: 17.6 µM (inactive)
GI50 [3]: 18.3 µM (inactive)
GI50 [4]: 15.3 µM (inactive)
GI50 [5]: 20.2 µM (inactive)
GI50 [6]: 17.1 µM (inactive)
GI50 [7]: 30.8 µM (inactive)
GI50 [8]: 17.2 µM (inactive)
GI50 [9]: 15.4 µM (inactive)
GI50 [10]: 23.1 µM (inactive)
GI50 [11]: 20.8 µM (inactive)
GI50 [12]: 21.8 µM (inactive)
GI50 [13]: 8.41 µM (inactive)
GI50 [14]: 7.11 µM (inactive)
GI50 [20]: 14.8 µM (inactive)
GI50 [15]: 11 µM (inactive)
GI50 [16]: 14.7 µM (inactive)
GI50 [17]: 24.5 µM (inactive)
GI50 [18]: 29.2 µM (inactive)

COc1cc(/C=C2/C[C@H]3[C@@H]4CCC5=CC(=O)CC[C@]5(C)[C@H]4CC[C@]3(C)NC2=O)cc(OC)c1OC
GI50 [1]: 21.1 µM (inactive)
GI50 [2]: 25.1 µM (inactive)
GI50 [19]: 21.6 µM (inactive)
GI50 [3]: 29 µM (inactive)
GI50 [4]: 26.7 µM (inactive)
GI50 [5]: 23.7 µM (inactive)
GI50 [6]: 48.6 µM (inactive)
GI50 [7]: 28.4 µM (inactive)
GI50 [8]: 26.3 µM (inactive)
GI50 [9]: 26.4 µM (inactive)
GI50 [11]: 17.3 µM (inactive)
GI50 [12]: 30.7 µM (inactive)
GI50 [14]: 18.5 µM (inactive)
GI50 [20]: 0.9 µM (active)
GI50 [15]: 9.64 µM (inactive)
GI50 [16]: 16.2 µM (inactive)
GI50 [17]: 45 µM (inactive)
GI50 [18]: 20 µM (inactive)

[N-]=[N+]=Nc1ccc2c(c1)Sc1ccccc1N2CCCCN1CCN(Cc2ccc(C(=O)c3ccc(CSCC(N)C(=O)O)cc3)cc2)CC1 (stereo not given)
GI50 [1]: 24.9 µM (inactive)
GI50 [19]: 18 µM (inactive)
GI50 [3]: 2.01 µM (inactive)
GI50 [4]: 1.57 µM (inactive)
GI50 [6]: 12.1 µM (inactive)
GI50 [7]: 34.8 µM (inactive)
GI50 [8]: 27.5 µM (inactive)
GI50 [9]: 31.6 µM (inactive)
GI50 [11]: 16.4 µM (inactive)
GI50 [12]: > 100 µM (inactive)
GI50 [14]: 13.6 µM (inactive)
GI50 [20]: 37.4 µM (inactive)
GI50 [15]: 13.2 µM (inactive)
GI50 [16]: 56.2 µM (inactive)
GI50 [18]: 18.2 µM (inactive)

— ChEMBL document CHEMBL1201862, “PubChem BioAssay data set” (2004)
